Test results reported in the NIST ThermoML archive (doi:10.1016/j.tca.2012.01.007).

Tests used:
[1] = 101 kPa, Liquid, Vibrating tube method
[2] = wn = mass fraction of the nth substance listed; settings: 101 kPa, Liquid, Vibrating tube method

OCCNCCO [diethanolamine]
[1]
Settings | mass density [kg/m3]
278.14 K | 1107.05
283.14 K | 1103.88
293.15 K | 1097.51
303.14 K | 1091.06
313.14 K | 1084.49
323.14 K | 1077.78
333.14 K | 1071
343.14 K | 1064.14
348.14 K | 1060.68
353.15 K | 1056.83

OCCNCCO [diethanolamine] + CO
[2]
Settings | mass density [kg/m3]
283.14 K, w1 = 0.5999 | 976.523
283.15 K, w1 = 0.1 | 827.828
283.15 K, w1 = 0.2 | 855.383
283.15 K, w1 = 0.3 | 883.986
283.15 K, w1 = 0.3999 | 913.669
283.15 K, w1 = 0.5002 | 945.053
283.15 K, w1 = 0.8001 | 1038.06
283.15 K, w1 = 0.831 | 1047.98
283.15 K, w1 = 0.9004 | 1070.41
283.15 K, w1 = 0.9209 | 1077.24
283.16 K, w1 = 0.6997 | 1006.57
293.14 K, w1 = 0.1 | 818.746
293.14 K, w1 = 0.9209 | 1070.68
293.15 K, w1 = 0.2 | 846.577
293.15 K, w1 = 0.3 | 875.502
293.15 K, w1 = 0.3999 | 905.478
293.15 K, w1 = 0.5002 | 937.232
293.15 K, w1 = 0.5999 | 969.048
293.15 K, w1 = 0.6997 | 999.095
293.15 K, w1 = 0.8001 | 1030.93
293.15 K, w1 = 0.9004 | 1063.79
293.16 K, w1 = 0.831 | 1040.93
303.14 K, w1 = 0.1 | 809.6
303.14 K, w1 = 0.5999 | 961.458
303.15 K, w1 = 0.2 | 837.727
303.15 K, w1 = 0.3 | 866.962
303.15 K, w1 = 0.3999 | 897.232
303.15 K, w1 = 0.5002 | 929.334
303.15 K, w1 = 0.6997 | 991.41
303.15 K, w1 = 0.8001 | 1023.79
303.15 K, w1 = 0.831 | 1033.88
303.15 K, w1 = 0.9004 | 1057.05
303.15 K, w1 = 0.9209 | 1064.03
313.14 K, w1 = 0.1 | 800.368
313.15 K, w1 = 0.2 | 828.795
313.15 K, w1 = 0.3 | 858.34
313.15 K, w1 = 0.3999 | 888.909
313.15 K, w1 = 0.5002 | 921.353
313.15 K, w1 = 0.5999 | 953.776
313.15 K, w1 = 0.6997 | 983.97
313.15 K, w1 = 0.8001 | 1016.6
313.15 K, w1 = 0.831 | 1026.78
313.15 K, w1 = 0.9004 | 1050.22
313.15 K, w1 = 0.9209 | 1057.29
323.14 K, w1 = 0.1 | 791.018
323.15 K, w1 = 0.2 | 819.75
323.15 K, w1 = 0.3 | 849.609
323.15 K, w1 = 0.3999 | 880.486
323.15 K, w1 = 0.5002 | 913.261
323.15 K, w1 = 0.5999 | 945.981
323.15 K, w1 = 0.6997 | 976.456
323.15 K, w1 = 0.8001 | 1009.28
323.15 K, w1 = 0.831 | 1019.63
323.15 K, w1 = 0.9004 | 1043.29
323.15 K, w1 = 0.9209 | 1050.47
333.14 K, w1 = 0.1 | 781.504
333.14 K, w1 = 0.5999 | 938.046
333.14 K, w1 = 0.9209 | 1043.49
333.15 K, w1 = 0.2 | 810.556
333.15 K, w1 = 0.3 | 840.739
333.15 K, w1 = 0.3999 | 871.934
333.15 K, w1 = 0.5002 | 905.025
333.15 K, w1 = 0.6997 | 968.833
333.15 K, w1 = 0.8001 | 1002.21
333.15 K, w1 = 0.831 | 1012.39
333.15 K, w1 = 0.9004 | 1036.23

CCO [ethanol]
[1]
Settings | mass density [kg/m3]
278.15 K | 802.686
283.15 K | 798.458
293.14 K | 789.938
303.14 K | 781.332
313.16 K | 772.577
323.14 K | 763.677
333.14 K | 754.521
343.15 K | 745.054
348.14 K | 740.206

CCO [ethanol] + OCCNCCO
[2], w2 = 0
Settings | mass density [kg/m3]
278.15 K | 802.686
283.15 K | 798.458
293.14 K | 789.938
303.14 K | 781.332
313.16 K | 772.577
323.14 K | 763.677
333.14 K | 754.521
343.15 K | 745.054
348.14 K | 740.206

CO [methanol]
[1]
Settings | mass density [kg/m3]
283.15 K | 801.436
293.15 K | 792.069
303.15 K | 782.606
313.15 K | 773.049
323.15 K | 763.363
333.15 K | 753.506

CO [methanol] + OCCNCCO
[2], w2 = 0
Settings | mass density [kg/m3]
283.15 K | 801.436
293.15 K | 792.069
303.15 K | 782.606
313.15 K | 773.049
323.15 K | 763.363
333.15 K | 753.506

O [water]
[1]
Settings | mass density [kg/m3]
283.15 K | 999.964
293.15 K | 998.557
303.15 K | 995.999
313.15 K | 992.57
323.15 K | 988.391
333.15 K | 983.453
343.14 K | 977.483
353.14 K | 972.2

O [water] + OCCNCCO
[2], w2 = 0
Settings | mass density [kg/m3]
283.15 K | 999.964
293.15 K | 998.557
303.15 K | 995.999
313.15 K | 992.57
323.15 K | 988.391
333.15 K | 983.453
343.14 K | 977.483
353.14 K | 972.2
